{"source": "patent US7972814B2", "about": "“Antimicrobial polypeptides from Pseudoplectania nigrella” (Novozymes Adenivro Biotech A/S, priority 2001, dated 2011)", "key": {"E. coli": {"test_system": "E. coli", "experiment": "Growth inhibition of E. coli upon induction of endogenous Plectasin expression (suicide expression system)", "format": "cell-based", "method": "In order to evaluate whether E. coli was growth inhibited in liquid media upon induction of endogenous Plectasin expression, the following experiment was conducted as disclosed in the examples of international patent application WO 00/73433. Briefly, fresh overnight cultures of cells containing either pDRS-18-plectasin, pDR-18-plectasin, pHH or pHHA plasmid were diluted 300-fold into 150 micro liter of LB or LB containing 0.1% arabinose in a microtiter plate and incubated at 37 degrees Celsius with vigorous shaking. The growth curve was monitored by measuring OD450 at regular intervals using an ELISA reader."}, "Bacillus subtilis": {"test_system": "Bacillus subtilis", "experiment": "Antimicrobial activity by radial diffusion assay", "format": "cell-based", "method": "A modified version of a previously published protocol has been applied in the detection of antimicrobial activity (Lehrer et al., (1991) Ultrasensitive assays for endogenous antimicrobial polypeptides J Immunol Methods 137: 167-173). Target bacteria (10^6 colony forming units (CFU)) were added to 10 ml of underlay agarose (1% low electro-endosmosis agarose, 0.03% Trypticase soy broth, 10 mM sodium phosphat, pH 7.4, 37 degrees Celsius). Suspension was solidified on an INTEGRID Petri Dish (Becton Dickinson Labware, N.J.). A 3 mm Gel Puncher was used to make holes in the underlay agarose (Amersham Pharmacia Biotech, Sweden). Samples were added to the holes and incubated at 37 degrees Celsius, 3 hours. An overlay was poured on top and the plate was incubated overnight (LB media, 7.5% Agar). Antimicrobial activity was seen as bacterial clearing zones around the wells. Living cells was counterstained by adding 10 ml, 0.2 mM MTT (3-(4,5-Dimethylthiazol-2-yl)-2,5-diphenyltetrazolium bromide Thiazolyl blue). All standard protocols has been described elsewhere (Sambrook, Fritsch, and Maniatis, 1989).\nTo evaluate the anti-microbial activity of Plectasin, fermentation broths of recombinant Aspergillus oryzae were applied in 2-fold serial dilutions in a radial diffusion assay (described above). […]\nThe supernatants described above were analyzed in a radial diffusion assay as described in Example 5. […]"}}, "data": [{"substance": "Plectasin", "values": [{"measurement": "inhibition of cell growth", "setting": "E. coli; Plectasin directed to the periplasm", "value": 41, "unit": "%"}, {"measurement": "effect on cell growth", "setting": "E. coli; Plectasin expressed in the cytoplasm", "value": "did not affect cell growth"}, {"measurement": "increase in antimicrobial activity of the peptide", "setting": "Bacillus subtilis; produced in E. coli Origami-DE3 (inclusion bodies) versus the earlier E. coli host", "value": "5-10 fold"}, {"measurement": "largest clearing zone", "setting": "Bacillus subtilis; undiluted fermentation broth of recombinant Aspergillus oryzae", "value": 15, "unit": "mm"}]}]}
